Data: paper PMC6017816, “Sesquiterpene Lactones from Vernonia cinerascens Sch. Bip. and Their in Vitro Antitrypanosomal Activity” (Molecules : A Journal of Synthetic Chemistry and Natural …, 2018)
Read-outs that look alike come from different tables or passages of the source.

Experiments:
[1] = in vitro cytotoxicity against mammalian cells (L6); format: cell-based, rat
Procedure: (§1) The dichloromethane (CH2Cl2) extract obtained from leaves of V. cinerascens was tested for in vitro antiprotozoal activity against Trypanosoma brucei rhodesiense (Tbr) (STIB 900 strain) trypomastigotes, T. cruzi (Tcr) (Tulahuen C4 strain) amastigotes, Leishmania donovani (Ldon) (MHOM-ET-67/L82 strain) axenic amastigotes, and Plasmodium falciparum (Pf) (NF54 strain) intra-erythrocytic forms. It was also evaluated for in vitro cytotoxicity against mammalian cells, specifically the rat-skeletal myoblast cell line L6. […] Therefore, the CH2Cl2 extract was fractionated by silica gel column chromatography and representative fractions were subjected to bioactivity testing against Tbr (STIB 900 strain) trypomastigotes.
(§2) In vitro bioactivity tests were performed as previously described against Tbr (bloodstream trypomastigotes, STIB 900 strain), Tcr (amastigotes, Tulahuen C4 strain), Ldon (axenic amastigotes, MHOM-ET-67/L82 strain), and Pf (intraerythrocytic forms, NF54 strain), and the cytotoxicity test was conducted against mammalian cells (L6 cell line from rat-skeletal myoblasts) at the Swiss Tropical and Public Health Institute (Swiss TPH, Basel, Switzerland).

[2] = test system: Trypanosoma brucei rhodesiense (Tbr) (STIB 900 strain) trypomastigotes; test: in vitro activity against Trypanosoma brucei rhodesiense bloodstream trypomastigotes; format: cell-based; settings: for IC50: Trypanosoma brucei, read-out: Tbr IC50; for SI (selectivity index): cytotoxicity L6 IC50 versus Tbr IC50
Procedure: as §1, §2

[3] = test system: Trypanosoma brucei rhodesiense (Tbr) (STIB 900 strain) trypomastigotes; design: method as in PMID 28397756; settings: isolated from V. lasiopus in previous study; read-out: in vitro antiTbr activity IC50; cited from earlier work
[4] = L6 cell line from rat-skeletal myoblasts, means of two independent determinations ± absolute deviation, read-out: Cytotoxicity IC50
[5] = bloodstream trypomastigotes, STIB 900 strain, means of two independent determinations ± absolute deviation

COc1cc([C@@H]2c3cc4c(cc3[C@H](O)[C@H]3COC(=O)[C@H]23)OCO4)cc(OC)c1OC [podophyllotoxin, reference compound]
IC50 [1, 4]: 0.007 ± 0.001 µM

C=C(CO)C(=O)O[C@H]1C[C@@]2(CO)O[C@@H]2CC/C(C=O)=C/[C@H]2OC(=O)C(=C)[C@H]12 [Compound 8, vernocinerascolide]
IC50 [2, 5]: 4.8 ± 1.1 µM | SI (selectivity index) [2]: 27 | IC50 ([1]; rat): 128 ± 1 µM

Nc1nc(N)nc(Nc2ccc([As]3SCC(CO)S3)cc2)n1 (stereo not drawn) [melarsoprol, reference compound]
IC50 [2]: 0.003 ± 0.001 µM

C=C(C)C(=O)OC1CC23OC2CCC(=CC2OC(=O)C(C)C21)COC3O (stereo not drawn) [Compound 4, 11β,13-dihydrovernolide]
IC50 [2, 5]: 17 µM | SI (selectivity index) [2]: 0.8 | IC50 [1, 4]: 13 ± 2 µM

C=C[C@@]12COC(=O)C(=C)[C@@H]1[C@H]1OC(=O)[C@@H](C)[C@@H]1[C@@H](OC(=O)C(=C)CO)C2 [Compound 3, 11β,13-dihydrovernodalin]
IC50 [2, 5]: 1.1 ± 0.3 µM | SI (selectivity index) [2]: 4.2 | IC50 ([1]; rat): 4.7 ± 0.4 µM

vernodalol [Compound 1]
IC50 [3]: 0.26 µM

C=C(CO)C(=O)OC1CC23OC2CCC(=CC2OC(=O)C(=C)C21)COC3O (stereo not drawn) [Compound 7, hydroxyvernolide]
IC50 [2, 5]: 5 µM | SI (selectivity index) [2]: 4.3 | IC50 ([1]; rat): 22 ± 1 µM

C=C(C)C(=O)OC1CC23OC2CCC(=CC2OC(=O)C(=C)C21)COC3O (stereo not drawn) [Compound 5, vernolide]
IC50 [2, 5]: 0.5 ± 0.01 µM | SI (selectivity index) [2]: 13 | IC50 [1, 4]: 6.9 µM

C=C(CO)C(=O)OC1CC23OC2CCC(=CC2OC(=O)C(C)C21)COC3O (stereo not drawn) [Compound 6, 11β,13-dihydrohydroxyvernolide]
IC50 [2, 5]: 15 µM | SI (selectivity index) [2]: 3.2 | IC50 ([1]; rat): 49 ± 1 µM

C=C[C@@]12COC(=O)C(=C)[C@@H]1[C@H]1OC(=O)C(=C)[C@@H]1[C@@H](OC(=O)C(=C)CO)C2 [Compound 2, vernodalin]
IC50 [2, 5]: 0.16 ± 0.04 µM | SI (selectivity index) [2]: 35 | IC50 ([1]; rat): 5.6 µM
